The values that follow are results of earlier work, collected in patent publication US20230233697A1, “CYTOTOXIC BENZODIAZEPINE DERIVATIVES” (priority 2014, published 2023).

For this data set the following is noted: Phase I clinical evaluation; cited from earlier work.

As to `C=C1C[C@H]2C=Nc3cc(OCCCOc4cc5c(cc4OC)C(=O)N4CC(=C)C[C@H]4C=N5)c(OC)cc3C(=O)N2C1` [SJG-136], the maximum tolerated dose is on record as 45 μg/m^2.
